According to ChEMBL document CHEMBL1141723, “Specific targeting of metzincin family members with small-molecule inhibitors: progress toward a multifarious challenge” (Bioorg Med Chem, 2008):
pIC50, pKi: −log10 of the molar value. Active and inactive are the calls of the source. No cut-off for these calls is given here.

Tests used:
[1] = Selectivity for pig TACE over MMP1
[2] = Selectivity for pig TACE over MMP7
[3] = Selectivity for pig TACE over MMP9
[4] = Selectivity for pig TACE over MMP3
[5] = Selectivity for pig TACE over MMP8
[6] = Selectivity for pig TACE over MMP2
[7] = target: T1, Matrix metalloproteinase-14 (Homo sapiens, UniProt P50281); assay: Inhibition of MMP14
[8] = target: Disintegrin and metalloproteinase domain-containing protein 17 (Homo sapiens, UniProt P78536); assay: Inhibition of TACE
Chain of Disintegrin and metalloproteinase domain-containing protein 17 (Homo sapiens, UniProt P78536) (P78536 whole entry, the tested form may be a part): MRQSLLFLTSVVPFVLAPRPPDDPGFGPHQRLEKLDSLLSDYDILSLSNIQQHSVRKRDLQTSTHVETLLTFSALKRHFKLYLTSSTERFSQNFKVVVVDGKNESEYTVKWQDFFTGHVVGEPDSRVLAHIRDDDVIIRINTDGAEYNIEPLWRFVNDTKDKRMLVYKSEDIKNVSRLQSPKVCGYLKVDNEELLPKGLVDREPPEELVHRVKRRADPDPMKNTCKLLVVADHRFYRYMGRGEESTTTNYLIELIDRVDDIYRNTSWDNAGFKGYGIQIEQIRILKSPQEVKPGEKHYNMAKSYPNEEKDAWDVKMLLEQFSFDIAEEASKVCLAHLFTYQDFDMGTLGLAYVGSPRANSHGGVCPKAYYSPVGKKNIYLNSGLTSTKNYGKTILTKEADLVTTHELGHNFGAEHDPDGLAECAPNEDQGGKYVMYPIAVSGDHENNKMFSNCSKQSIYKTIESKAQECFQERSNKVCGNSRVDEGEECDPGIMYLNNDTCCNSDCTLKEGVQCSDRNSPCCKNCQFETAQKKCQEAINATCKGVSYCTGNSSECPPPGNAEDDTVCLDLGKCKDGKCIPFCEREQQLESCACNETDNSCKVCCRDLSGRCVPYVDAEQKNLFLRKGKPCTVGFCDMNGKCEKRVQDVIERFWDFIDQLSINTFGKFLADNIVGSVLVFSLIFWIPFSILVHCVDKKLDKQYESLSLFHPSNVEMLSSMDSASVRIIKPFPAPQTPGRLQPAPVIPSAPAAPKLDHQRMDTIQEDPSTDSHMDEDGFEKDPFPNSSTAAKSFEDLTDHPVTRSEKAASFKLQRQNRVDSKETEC

[9] = target: T2, 72 kDa type IV collagenase (Homo sapiens, UniProt P08253)
Target sequence in this assay (P08253 whole entry): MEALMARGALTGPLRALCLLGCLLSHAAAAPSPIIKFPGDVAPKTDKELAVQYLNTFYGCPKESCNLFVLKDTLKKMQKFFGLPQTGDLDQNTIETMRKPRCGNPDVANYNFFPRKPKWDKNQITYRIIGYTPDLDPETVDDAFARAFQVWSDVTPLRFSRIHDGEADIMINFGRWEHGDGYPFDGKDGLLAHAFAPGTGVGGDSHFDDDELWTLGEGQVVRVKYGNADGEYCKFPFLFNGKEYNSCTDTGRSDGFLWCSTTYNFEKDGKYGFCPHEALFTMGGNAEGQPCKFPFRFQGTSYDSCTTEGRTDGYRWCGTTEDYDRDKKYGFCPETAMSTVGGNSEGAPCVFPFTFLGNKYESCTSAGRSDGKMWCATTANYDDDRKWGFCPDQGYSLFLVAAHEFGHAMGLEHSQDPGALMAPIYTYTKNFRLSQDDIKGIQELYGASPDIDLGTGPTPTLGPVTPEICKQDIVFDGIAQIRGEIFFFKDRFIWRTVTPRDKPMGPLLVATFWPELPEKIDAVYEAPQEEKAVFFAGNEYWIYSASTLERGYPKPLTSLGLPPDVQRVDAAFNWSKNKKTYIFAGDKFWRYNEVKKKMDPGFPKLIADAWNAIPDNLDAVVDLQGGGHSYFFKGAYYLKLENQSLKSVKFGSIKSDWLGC

Interstitial collagenase = target: T3, Interstitial collagenase (Homo sapiens, UniProt P03956)
T3 sequence (P03956 whole entry): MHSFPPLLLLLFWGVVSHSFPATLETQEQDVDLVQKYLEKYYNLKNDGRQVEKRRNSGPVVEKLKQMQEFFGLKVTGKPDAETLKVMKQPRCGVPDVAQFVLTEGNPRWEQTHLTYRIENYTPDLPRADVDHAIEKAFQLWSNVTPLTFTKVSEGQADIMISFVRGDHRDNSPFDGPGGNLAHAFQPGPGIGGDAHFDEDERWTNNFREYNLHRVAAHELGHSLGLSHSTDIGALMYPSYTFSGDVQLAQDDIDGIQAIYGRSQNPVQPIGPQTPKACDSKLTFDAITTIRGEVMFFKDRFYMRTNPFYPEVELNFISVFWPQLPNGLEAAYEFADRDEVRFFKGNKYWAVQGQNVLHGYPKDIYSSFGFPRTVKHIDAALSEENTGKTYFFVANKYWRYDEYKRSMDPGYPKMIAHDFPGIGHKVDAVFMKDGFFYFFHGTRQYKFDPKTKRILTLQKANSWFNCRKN

Collagenase 3 = Collagenase 3 (Homo sapiens, UniProt P45452); assay: Inhibition of MMP13
[10] = target: T4, Matrix metalloproteinase-9 (Homo sapiens, UniProt P14780); assay: Inhibition of MMP9
T4 sequence (P14780 whole entry, the tested form may be a part): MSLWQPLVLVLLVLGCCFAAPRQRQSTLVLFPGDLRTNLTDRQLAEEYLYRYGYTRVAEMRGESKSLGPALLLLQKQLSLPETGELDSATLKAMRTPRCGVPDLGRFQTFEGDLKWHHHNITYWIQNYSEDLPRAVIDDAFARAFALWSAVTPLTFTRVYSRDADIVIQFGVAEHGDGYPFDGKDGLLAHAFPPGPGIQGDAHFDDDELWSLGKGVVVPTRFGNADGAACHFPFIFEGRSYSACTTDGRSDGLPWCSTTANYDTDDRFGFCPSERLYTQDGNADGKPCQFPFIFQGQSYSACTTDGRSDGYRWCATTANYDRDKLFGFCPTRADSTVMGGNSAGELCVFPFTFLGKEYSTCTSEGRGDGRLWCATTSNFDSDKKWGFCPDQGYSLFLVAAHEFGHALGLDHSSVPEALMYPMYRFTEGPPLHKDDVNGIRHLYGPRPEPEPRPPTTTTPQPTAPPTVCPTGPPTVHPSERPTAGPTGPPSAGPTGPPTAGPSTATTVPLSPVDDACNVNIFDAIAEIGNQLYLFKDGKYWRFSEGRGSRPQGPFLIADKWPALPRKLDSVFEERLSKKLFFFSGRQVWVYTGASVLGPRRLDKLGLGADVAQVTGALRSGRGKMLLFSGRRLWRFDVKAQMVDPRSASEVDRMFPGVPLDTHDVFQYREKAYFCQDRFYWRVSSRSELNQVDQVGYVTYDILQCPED

[11] = target: T5, Disintegrin and metalloproteinase domain-containing protein 10 (Homo sapiens, UniProt O14672); assay: Inhibition of ADAM10
T5 sequence (O14672 whole entry): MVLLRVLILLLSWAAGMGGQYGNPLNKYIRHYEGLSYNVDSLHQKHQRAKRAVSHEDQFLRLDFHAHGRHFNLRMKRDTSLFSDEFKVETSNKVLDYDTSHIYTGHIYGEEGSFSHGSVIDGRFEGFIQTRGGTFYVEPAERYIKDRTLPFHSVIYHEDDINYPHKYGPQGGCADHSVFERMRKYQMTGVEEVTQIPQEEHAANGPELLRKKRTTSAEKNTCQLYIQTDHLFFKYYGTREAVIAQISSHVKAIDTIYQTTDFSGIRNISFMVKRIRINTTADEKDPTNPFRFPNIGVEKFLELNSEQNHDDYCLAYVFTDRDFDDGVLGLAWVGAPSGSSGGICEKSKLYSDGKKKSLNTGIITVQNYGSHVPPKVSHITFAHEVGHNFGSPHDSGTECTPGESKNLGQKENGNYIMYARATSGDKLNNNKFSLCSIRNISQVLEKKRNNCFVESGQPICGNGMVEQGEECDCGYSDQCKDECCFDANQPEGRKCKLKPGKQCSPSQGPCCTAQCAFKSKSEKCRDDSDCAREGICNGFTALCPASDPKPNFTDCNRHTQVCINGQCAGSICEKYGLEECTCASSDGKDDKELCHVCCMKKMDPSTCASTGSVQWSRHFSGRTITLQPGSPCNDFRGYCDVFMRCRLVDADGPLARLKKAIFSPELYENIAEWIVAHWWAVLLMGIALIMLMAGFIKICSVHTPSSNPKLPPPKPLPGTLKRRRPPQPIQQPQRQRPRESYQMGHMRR

Neutrophil collagenase [12] = target: T6, Neutrophil collagenase (Homo sapiens, UniProt P22894); assay: Inhibition of MMP8
Target sequence in this assay (P22894 whole entry): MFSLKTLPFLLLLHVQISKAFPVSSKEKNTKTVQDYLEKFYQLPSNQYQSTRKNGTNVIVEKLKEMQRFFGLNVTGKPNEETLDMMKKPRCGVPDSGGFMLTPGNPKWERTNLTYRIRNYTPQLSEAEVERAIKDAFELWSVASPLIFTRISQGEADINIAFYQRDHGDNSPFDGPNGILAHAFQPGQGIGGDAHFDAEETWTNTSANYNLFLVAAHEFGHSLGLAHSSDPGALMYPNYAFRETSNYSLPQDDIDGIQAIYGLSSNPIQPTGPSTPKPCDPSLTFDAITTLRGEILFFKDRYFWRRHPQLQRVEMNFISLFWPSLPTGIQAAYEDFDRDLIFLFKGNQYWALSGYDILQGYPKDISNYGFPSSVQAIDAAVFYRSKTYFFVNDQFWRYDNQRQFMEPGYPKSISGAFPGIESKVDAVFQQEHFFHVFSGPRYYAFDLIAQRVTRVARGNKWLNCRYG

Matrilysin = target: T7, Matrilysin (Homo sapiens, UniProt P09237)
T7 sequence (P09237 whole entry): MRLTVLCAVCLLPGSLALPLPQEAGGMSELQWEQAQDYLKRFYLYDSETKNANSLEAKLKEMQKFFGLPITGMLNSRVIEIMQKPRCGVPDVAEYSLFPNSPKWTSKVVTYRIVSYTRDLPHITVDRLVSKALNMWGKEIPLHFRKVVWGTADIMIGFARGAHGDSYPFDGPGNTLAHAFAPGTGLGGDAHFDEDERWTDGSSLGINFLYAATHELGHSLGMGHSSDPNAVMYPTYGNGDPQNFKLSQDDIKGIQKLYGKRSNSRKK

[13] = Inhibition of bovine aggrecanase; set-up: species or system Bos taurus
Stromelysin-1 [14] = target: T8, Stromelysin-1 (Homo sapiens, UniProt P08254)
Target sequence in this assay (P08254 whole entry, the tested form may be a part): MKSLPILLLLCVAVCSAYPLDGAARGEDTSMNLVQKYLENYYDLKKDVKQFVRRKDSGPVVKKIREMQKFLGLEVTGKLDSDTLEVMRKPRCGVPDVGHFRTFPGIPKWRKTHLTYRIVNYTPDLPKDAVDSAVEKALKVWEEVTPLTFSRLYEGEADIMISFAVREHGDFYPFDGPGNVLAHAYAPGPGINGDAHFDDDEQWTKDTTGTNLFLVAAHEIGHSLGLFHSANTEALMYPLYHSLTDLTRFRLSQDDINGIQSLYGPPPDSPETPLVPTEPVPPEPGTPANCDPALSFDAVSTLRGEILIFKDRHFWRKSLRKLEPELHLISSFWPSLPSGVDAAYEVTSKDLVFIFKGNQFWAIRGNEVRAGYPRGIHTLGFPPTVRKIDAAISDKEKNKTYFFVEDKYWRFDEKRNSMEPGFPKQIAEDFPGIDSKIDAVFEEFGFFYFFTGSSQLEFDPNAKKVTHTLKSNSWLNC

[15] = target: Disintegrin and metalloproteinase domain-containing protein 17 (Sus scrofa, UniProt O77636); assay: Inhibition of pig TACE
Chain of Disintegrin and metalloproteinase domain-containing protein 17 (Sus scrofa, UniProt O77636) (O77636 whole entry, the tested form may be a part): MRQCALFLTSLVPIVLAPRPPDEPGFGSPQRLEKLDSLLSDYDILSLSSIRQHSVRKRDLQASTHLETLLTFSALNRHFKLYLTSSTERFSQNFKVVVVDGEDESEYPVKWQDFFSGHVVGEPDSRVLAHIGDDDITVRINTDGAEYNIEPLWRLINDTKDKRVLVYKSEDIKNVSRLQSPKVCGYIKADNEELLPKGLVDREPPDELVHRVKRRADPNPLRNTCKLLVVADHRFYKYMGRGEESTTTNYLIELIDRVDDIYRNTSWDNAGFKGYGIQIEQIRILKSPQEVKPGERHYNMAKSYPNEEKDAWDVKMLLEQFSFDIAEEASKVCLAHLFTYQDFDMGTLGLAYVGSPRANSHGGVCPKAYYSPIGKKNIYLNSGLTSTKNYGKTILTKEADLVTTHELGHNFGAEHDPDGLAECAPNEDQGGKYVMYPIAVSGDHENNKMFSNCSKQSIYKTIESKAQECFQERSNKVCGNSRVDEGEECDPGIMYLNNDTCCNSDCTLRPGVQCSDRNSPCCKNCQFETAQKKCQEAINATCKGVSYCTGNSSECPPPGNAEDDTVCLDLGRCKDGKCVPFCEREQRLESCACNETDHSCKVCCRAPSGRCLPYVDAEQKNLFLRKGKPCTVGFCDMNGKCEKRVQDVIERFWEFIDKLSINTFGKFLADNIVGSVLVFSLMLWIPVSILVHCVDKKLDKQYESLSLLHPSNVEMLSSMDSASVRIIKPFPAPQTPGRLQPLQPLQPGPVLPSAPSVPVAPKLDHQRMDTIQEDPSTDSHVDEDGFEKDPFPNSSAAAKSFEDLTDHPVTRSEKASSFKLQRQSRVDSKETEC

[16] = target: T9, Interstitial collagenase (Homo sapiens) (UniProt P03956); assay: Inhibition of MMP1 at 100 uM
T9 sequence (whole entry): T3 sequence (P03956 whole entry)

[17] = target: T10, Macrophage metalloelastase (Homo sapiens, UniProt P39900); assay: Inhibition of MMP12
Target sequence in this assay (P39900 whole entry): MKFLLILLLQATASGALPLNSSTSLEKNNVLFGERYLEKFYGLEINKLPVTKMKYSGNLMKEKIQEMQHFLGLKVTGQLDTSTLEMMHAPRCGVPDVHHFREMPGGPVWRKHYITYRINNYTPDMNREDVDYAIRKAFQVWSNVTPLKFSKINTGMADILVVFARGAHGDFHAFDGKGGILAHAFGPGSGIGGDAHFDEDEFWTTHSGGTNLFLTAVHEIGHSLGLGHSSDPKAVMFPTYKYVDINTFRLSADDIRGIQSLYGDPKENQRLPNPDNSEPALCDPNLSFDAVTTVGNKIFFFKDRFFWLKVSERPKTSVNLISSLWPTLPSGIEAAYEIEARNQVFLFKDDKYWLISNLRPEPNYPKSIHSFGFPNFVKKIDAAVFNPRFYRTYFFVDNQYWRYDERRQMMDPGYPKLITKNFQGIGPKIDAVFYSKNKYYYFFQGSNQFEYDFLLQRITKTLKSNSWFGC

[18] = target: T2, 72 kDa type IV collagenase; assay: Inhibition of MMP2 up to 100 uM
[19] = target: T11, Matrix metalloproteinase-17 (Homo sapiens) (UniProt Q9ULZ9); assay: Inhibition of MMP17 up to 100 uM
T11 sequence (whole entry): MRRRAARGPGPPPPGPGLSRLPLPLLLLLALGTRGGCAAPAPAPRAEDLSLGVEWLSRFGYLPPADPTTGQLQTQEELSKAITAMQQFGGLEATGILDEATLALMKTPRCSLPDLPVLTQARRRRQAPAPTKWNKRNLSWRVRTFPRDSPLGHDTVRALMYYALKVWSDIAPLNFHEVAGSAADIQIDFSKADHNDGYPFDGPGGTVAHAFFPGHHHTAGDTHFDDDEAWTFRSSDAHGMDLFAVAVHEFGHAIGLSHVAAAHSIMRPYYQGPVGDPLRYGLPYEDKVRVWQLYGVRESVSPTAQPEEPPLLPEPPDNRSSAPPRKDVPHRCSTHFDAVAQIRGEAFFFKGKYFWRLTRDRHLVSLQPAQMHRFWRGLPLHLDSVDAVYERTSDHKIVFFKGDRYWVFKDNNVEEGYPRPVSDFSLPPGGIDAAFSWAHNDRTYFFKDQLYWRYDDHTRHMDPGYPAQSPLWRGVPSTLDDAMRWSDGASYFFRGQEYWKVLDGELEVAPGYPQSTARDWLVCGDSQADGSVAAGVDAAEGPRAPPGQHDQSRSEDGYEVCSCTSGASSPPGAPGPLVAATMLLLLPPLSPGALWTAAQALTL

[20] = target: T1, Matrix metalloproteinase-14; assay: Inhibition of MMP14 up to 100 uM
[21] = target: T12, Matrilysin (Homo sapiens) (UniProt P09237); assay: Inhibition of MMP7 up to 100 uM
T12 sequence (whole entry): T7 sequence (P09237 whole entry)

[22] = target: T10, Macrophage metalloelastase; assay: Inhibition of MMP12 up to 100 uM
Neutrophil collagenase [23] = target: T6, Neutrophil collagenase; assay: Inhibition of MMP8 up to 100 uM
Target sequence in this assay (P22894 101-467 limits assumed): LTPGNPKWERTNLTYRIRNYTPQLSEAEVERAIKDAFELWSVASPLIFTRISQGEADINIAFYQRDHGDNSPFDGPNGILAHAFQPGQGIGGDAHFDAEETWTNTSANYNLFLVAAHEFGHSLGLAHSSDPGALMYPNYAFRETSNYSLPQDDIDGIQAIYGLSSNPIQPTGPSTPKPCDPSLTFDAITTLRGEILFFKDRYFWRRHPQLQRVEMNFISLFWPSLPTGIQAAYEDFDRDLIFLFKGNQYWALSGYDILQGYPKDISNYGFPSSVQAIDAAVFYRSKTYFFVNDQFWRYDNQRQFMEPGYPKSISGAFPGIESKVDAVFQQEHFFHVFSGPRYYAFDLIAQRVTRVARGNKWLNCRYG

[24] = target: T4, Matrix metalloproteinase-9; assay: Inhibition of MMP9 up to 100 uM
Stromelysin-1 [25] = target: T8, Stromelysin-1; assay: Inhibition of MMP3 up to 100 uM
[26] = Selectivity for TACE over MMP1
[27] = Selectivity for TACE over MMP2
[28] = Selectivity for TACE over MMP14
[29] = Selectivity for TACE over MMP3
[30] = Selectivity for TACE over MMP7
[31] = Selectivity for TACE over BMP1
[32] = Selectivity for TACE over ADAM10

Cc1cc(COc2ccc(C(=O)N[C@@H]3CCOC[C@@H]3C(=O)NO)cc2)c2ccccc2n1
fold change (FC) [1]: > 30000 | fold change (FC) [2]: 200 | fold change (FC) [3]: > 14000 | fold change (FC) [4]: 427 | fold change (FC) [5]: 5500 | fold change (FC) [6]: > 30000

CC#CCOc1ccc(S(=O)(=O)CC2(C(=O)NO)CCN(c3c(C)noc3C)CC2)cc1
pIC50 [7]: 4.62 | pIC50 [8]: 8.66 | pIC50 [9]: 6.18 | pIC50 (Interstitial collagenase): 4.43 | pIC50 (Collagenase 3): 5.64 | pIC50 [10]: 5.26

CC#CCOc1ccc(S(=O)(=O)N[C@@H](C(=O)NO)[C@H](C)O)cc1
pIC50 [7]: 6.24 | pIC50 [8]: 8.70 | pIC50 (Interstitial collagenase): 5.61 | pIC50 [11]: 5.96 | pIC50 (Collagenase 3): 7.02 | pIC50 [10]: 6.11 | pIC50 (Neutrophil collagenase [12]): 7.46 | pIC50 (Matrilysin): 6.02

CC1(CN[C@H](C(=O)NO)[C@@H](Cc2cccc(O)c2)C(=O)N[C@H]2c3ccccc3C[C@H]2O)CC1
pKi [9]: < 5.52 | pIC50 [13]: 8.10 | pKi (Interstitial collagenase): 5.28 | pKi (Collagenase 3): < 5.30 | pKi [10]: > 9.00 | pKi (Stromelysin-1 [14]): < 5.35

Cc1cc(COc2ccc(S(=O)(=O)CC(C=C3CCN(CC(C)C)CC3)N(O)C=O)cc2)c2ccccc2n1 (configuration not stated)
pIC50 [7]: < 4.00 | pIC50 (Interstitial collagenase): < 4.00 | pIC50 (Neutrophil collagenase [12]): < 4.00

COc1c(Br)ccc2oc(COc3ccc(-c4ccc(S(=O)(=O)N[C@@H](C(=O)O)C(C)C)cc4)cc3)c(C)c12
pIC50 [8]: < 4.60 | pIC50 (Interstitial collagenase): < 3.40 | pIC50 (Neutrophil collagenase [12]): 7.38 | pIC50 (Stromelysin-1 [14]): 7.09

CCCN1C(=O)[C@H](CS)NC(=O)[C@@H]1Cc1ccc([N+](=O)[O-])cc1
pIC50 (Stromelysin-1 [14]): < 4.70

COC[C@@H](NC(=O)[C@@H](NC(=O)[C@H](CCCc1ccc(-c2ccccc2)c(C)c1)CC(=O)NO)C(C)(C)C)c1ccccc1
pIC50 [7]: 6.03 | pIC50 [9]: 6.12 | pIC50 (Interstitial collagenase): 5.23 | pIC50 [10]: 6.25 | pIC50 (Stromelysin-1 [14]): 8.68

Cc1cc(=O)c(O)c(C(=O)NCc2ccc(-c3ccc(-c4ccccc4)cc3)cc2)o1
pIC50 [9]: < 4.30 | pIC50 (Interstitial collagenase): < 4.30

Cc1cc(COc2ccc(NC(=O)[C@H]3[C@H](C(=O)NO)CCCN3C)cc2)c2ccccc2n1
pKi [9]: < 5.48 | pKi (Interstitial collagenase): < 5.31 | pKi [10]: < 5.67 | pIC50 [15]: 8.21

COC[C@@H](NC(=O)[C@@H](NC(=O)[C@H](CCCc1ccc(-c2ccccc2)c(C)c1)CC(=O)O)C(C)(C)C)c1ccccc1
inhibition [16]: 20%

Cc1cc(COc2ccc(C(=O)Nc3ccccc3C(=O)c3c[nH]c(=O)[nH]3)cc2)c2ccccc2n1
pKi (Matrilysin): < 6.20 | pIC50 [15]: 8.05

CN1CC2(CC2)C[C@H](C(=O)NO)[C@H]1C(=O)N1CCN(c2ccc(C(F)(F)F)cn2)CC1
pIC50 [8]: 5.69 | pIC50 [11]: 7.01 | pIC50 [17]: 6.25

Cn1c(=O)n(Cc2ccc(C(=O)O)cc2)c(=O)c2cc(C#CCc3ccccc3)ccc21
Activity [18]: inactive | Activity [19]: inactive | Activity [16]: inactive | Activity [20]: inactive | Activity [21]: inactive | Activity [22]: inactive | Activity (Neutrophil collagenase [23]): inactive | Activity [24]: inactive | Activity (Stromelysin-1 [25]): inactive

O=S(=O)(CC1CS1)c1ccc(Oc2ccccc2)cc1 (configuration not stated)
pKi [8]: 5.43

O=C(O)C[C@@H](NC(=O)c1cc(-c2ccc(-c3ccncc3)cc2)cs1)c1ccccc1
pIC50 [9]: < 4.00 | pIC50 [10]: 6.01 | pIC50 (Neutrophil collagenase [12]): 5.77 | pIC50 (Stromelysin-1 [14]): 6.41

O=C(NO)[C@@H](NCC1CC1)[C@@H](Cc1cccc(O)c1)C(=O)N[C@H]1c2ccccc2C[C@H]1O
pIC50 [13]: 7.92

COC(=O)[C@@]1(Cc2ccc(OCc3cc(C)nc4ccccc34)cc2)C[C@@H]1C(=O)NO
fold change (FC) [26]: > 12500 | fold change (FC) [27]: 1100 | fold change (FC) [28]: 1800 | fold change (FC) [29]: 100 | fold change (FC) [30]: 200 | fold change (FC) [31]: 2200 | fold change (FC) [32]: > 7000

COc1ccc(C2=NNC3(S2)C(=O)N(Cc2ccccc2)c2ccc(C)cc23)cc1 (configuration not stated)
pIC50 (Collagenase 3): < 4.00 | pIC50 [17]: < 4.66

COC(=O)[C@]1(c2cccc(OCc3cc(C)nc4ccccc34)c2)C[C@H]1C(=O)NO
fold change (FC) [26]: > 8300 | fold change (FC) [27]: 3400 | fold change (FC) [28]: 770 | fold change (FC) [29]: 1300 | fold change (FC) [30]: > 8300 | fold change (FC) [31]: 1400 | fold change (FC) [32]: 4

Cc1cc(C#N)ccc1N1CCN(S(=O)(=O)CC2(C(=O)NO)CCN(C(=O)O[C@@H]3CCOC3)CC2)CC1
pIC50 [9]: < 5.30 | pIC50 (Interstitial collagenase): < 5.30 | pIC50 [11]: 7.59 | pIC50 [10]: < 5.30 | pIC50 (Stromelysin-1 [14]): < 5.30
